Assay results taken from PMC9228592, “Dichloroacetyl Amides of 3,5-Bis(benzylidene)-4-piperidones Displaying Greater Toxicity to Neoplasms than to Non-Malignant Cells” (Medicines, 2022).

Columns and labels:
Assay type in all cases: cell-based, human
[1] = test system: Ca9-22 squamous cell carcinoma cells; test: Cytotoxicity (MTT, 48 h) against Ca9-22 cells; conditions: for CC50: 48 h, MTT, mean ± S.D. of triplicate; for SI (Ca9-22): average CC50 towards HGF, HPLF, HPC divided by CC50 against Ca9-22
Description: (§1) The target cells used in our study were human oral squamous cell carcinoma cell lines Ca9-22 (purchased from RIKEN Cell Bank, Tukuba, RCB-1976), HSC-2 (RCB1945), HSC-3 (RCB1975), HSC-4 (RCB1902), and three human normal oral cells, gingival fibroblast (HGF), periodontal ligament fibroblast (HPLF), and pulp cells (HPC) [established from the first premolar extracted tooth in the lower jaw (because of dysfunctional position or orthodontic treatment) and periodontal tissues of a child, according to the guideline of the Institutional Board of Meikai University Ethics Committee (No. A0808)], after obtaining informed consent from the patients. These cells were incubated for 48 h with the indicated concentrations of test samples or reference compounds sodium dichloroacetate (purchased from Sigma-Aldrich Chemical Company, Saint Louis, MO, USA), 5-fluorouracil (5-FU) from Kyowa (Tokyo, Japan), and doxorubicin (DXR) (St. Louis, MO, USA) and vehicle (DMSO) (0.008, 0.016, 0.031, 0.063, 0.125, 0.25, 0.5, and 1%) in Dulbecco’s Modified Eagle Medium (DMEM) media, which was supplemented with 10% heat-inactivated fetal bovine serum. Cell viability was determined by the MTT method. Cytotoxicity caused by the vehicle (DMSO) was subtracted.
(§2) SI was calculated by dividing the average CC50 value (concentration of the compound to kill 50% of the cells) of the compound towards HGF, HPLF, and HPC cells by the CC50 value of the compound against a specific neoplastic cell line.

[2] = test system: HSC-2 squamous cell carcinoma cells; test: Cytotoxicity (MTT, 48 h) against HSC-2 cells; conditions: for SI (HSC-2): average CC50 towards HGF, HPLF, HPC divided by CC50 against HSC-2
Description: as §1, §2

[3] = test system: HSC-3 squamous cell carcinoma cells; test: Cytotoxicity (MTT, 48 h) against HSC-3 cells; conditions: for CC50: 48 h, MTT, mean ± S.D. of triplicate; for SI (HSC-3): average CC50 towards HGF, HPLF, HPC divided by CC50 against HSC-3
Description: as §1, §2

[4] = test system: HSC-4 squamous cell carcinoma cells; test: Cytotoxicity (MTT, 48 h) against HSC-4 cells; conditions: for CC50: 48 h, MTT, mean ± S.D. of triplicate; for SI (HSC-4): average CC50 towards HGF, HPLF, HPC divided by CC50 against HSC-4
Description: as §1, §2

[5] = test system: gingival fibroblast (HGF); test: Cytotoxicity (MTT, 48 h) against HGF non-malignant cells; conditions: mean ± S.D. of triplicate
Description: as §1

[6] = test system: periodontal ligament fibroblast (HPLF); test: Cytotoxicity (MTT, 48 h) against HPLF non-malignant cells; conditions: mean ± S.D. of triplicate
Description: as §1

[7] = test system: pulp cells (HPC); test: Cytotoxicity (MTT, 48 h) against HPC non-malignant cells; conditions: mean ± S.D. of triplicate
Description: as §1

[8] = test system: Ca9-22, HSC-2, HSC-3, and HSC-4 cells; test: Average cytotoxicity, selectivity and PSE over the four carcinoma lines; conditions: for Average SI: average of SI over Ca9-22, HSC-2, HSC-3, HSC-4
Description: as §1, §2
PSE reflects both the potencies and differences in cytotoxicity to neoplasms and non-malignant cells. This value was the product of the reciprocal of the average CC50 value of the compounds towards Ca9-22, HSC-2, HSC-3, and HSC-4 cells and the average SI value × 100.

[9] = test system: HGF, HPLF, and HPC cells; test: Average cytotoxicity over the three non-malignant cells
Description: as §1

[10] = test system: Ca9-22 cells; test: Cell cycle assay in Ca9-22 cells; conditions: 20 h
Method: The evaluation of varying quantities of 1d,e,k on the cell cycle in Ca9-22 cells was undertaken by a literature method. In brief, Ca9-22 cells were treated for 20 h without (control) or with the indicated concentrations of the test samples. To neglect the cytotoxicity effect of DMSO, all samples contained 0.1% DMSO. Cells (approximately 10^6 cells) were harvested, fixed for 1 h on ice with 1% paraformaldehyde, washed twice by phosphate-buffered saline, treated for 30 min at 37 °C with 0.2 mg/mL RNase A (ribonuclease A), stained for 15 min at room temperature with 0.01% propidium iodide in the presence of 0.01% NP-40 (nonyl phenoxypolyethoxyethanol) to prevent cell aggregation, filtered through Falcon® cell strainers (pore size: 40 µm) (Corning, NY, USA), subjected to cell sorting (SH800 Series; SONY Imaging Products and Solutions Inc., Kanagawa, Japan), and then analyzed with Cell Sorter Software version 2.1.2. (SONY Imaging Products and Solutions Inc., Kanagawa, Japan).

[11] = 48 h, MTT, mean ± S.D. of triplicate
[12] = average over Ca9-22, HSC-2, HSC-3, HSC-4

## O=C1/C(=C/c2ccc3c(c2)OCO3)CN(C(=O)C(Cl)Cl)C/C1=C\c1ccc2c(c1)OCO2 [Compound 1i]
[1]
  CC50: 170 ± 60 nM
  SI (Ca9-22): 25.1
[2]; [11]
  CC50: 360 ± 10 nM
[2]
  SI (HSC-2): 11.9
[3]
  CC50: 740 ± 130 nM
  SI (HSC-3): 5.77
[4]
  CC50: 650 ± 170 nM
  SI (HSC-4): 6.57
[5]
  CC50: 5670 ± 310 nM
[6]
  CC50: 4370 ± 850 nM
[7]
  CC50: 2780 ± 140 nM
[8]
  Average SI: 12.3
[8]; [12]
  CC50: 480 nM
[9]
  CC50: 4270 nM

## O=C1C(=Cc2ccc(F)cc2)CN(C(=O)C(Cl)Cl)CC1=Cc1ccc(F)cc1 [Compound 1b]
[1]
  CC50: 110 ± 10 nM
  SI (Ca9-22): 19.8
[2]; [11]
  CC50: 250 ± 20 nM
[2]
  SI (HSC-2): 8.72
[3]
  CC50: 440 ± 20 nM
  SI (HSC-3): 4.96
[4]
  CC50: 330 ± 70 nM
  SI (HSC-4): 6.61
[5]
  CC50: 2970 ± 460 nM
[6]
  CC50: 2260 ± 110 nM
[7]
  CC50: 1300 ± 160 nM
[8]
  Average SI: 10.0
[8]; [12]
  CC50: 280 nM
[9]
  CC50: 2180 nM

## O=C1C(=Cc2ccccc2)CN(C(=O)C(Cl)Cl)CC1=Cc1ccccc1 [Compound 1a]
[1]
  CC50: 420 ± 40 nM
  SI (Ca9-22): 9.64
[2]; [11]
  CC50: 670 ± 60 nM
[2]
  SI (HSC-2): 6.05
[3]
  CC50: 1290 ± 70 nM
  SI (HSC-3): 3.14
[4]
  CC50: 590 ± 120 nM
  SI (HSC-4): 6.86
[5]
  CC50: 5900 ± 100 nM
[6]
  CC50: 3370 ± 420 nM
[7]
  CC50: 2880 ± 80 nM
[8]
  Average SI: 6.42
[8]; [12]
  CC50: 740 nM
[9]
  CC50: 4050 nM

## Cc1ccc(C=C2CN(C(=O)C(Cl)Cl)CC(=Cc3ccc(C)cc3)C2=O)cc1 [Compound 1j]
[1]
  CC50: 150 ± 30 nM
  SI (Ca9-22): 32.1
[2]; [11]
  CC50: 260 ± 10 nM
[2]
  SI (HSC-2): 18.5
[3]
  CC50: 460 ± 40 nM
  SI (HSC-3): 10.5
[4]
  CC50: 450 ± 40 nM
  SI (HSC-4): 10.7
[5]
  CC50: 5530 ± 310 nM
[6]
  CC50: 5000 ± 100 nM
[7]
  CC50: 3930 ± 650 nM
[8]
  Average SI: 18.0
[8]; [12]
  CC50: 330 nM
[9]
  CC50: 4820 nM

## COc1ccc(/C=C2\CN(C(=O)C(Cl)Cl)C/C(=C\c3ccc(OC)cc3)C2=O)cc1 [Compound 1f]
[1]
  CC50: 390 ± 20 nM
  SI (Ca9-22): 15.4
[2]; [11]
  CC50: 520 ± 70 nM
[2]
  SI (HSC-2): 11.5
[3]
  CC50: 1000 ± 160 nM
  SI (HSC-3): 5.99
[4]
  CC50: 1260 ± 270 nM
  SI (HSC-4): 4.75
[5]
  CC50: 9030 ± 760 nM
[6]
  CC50: 5330 ± 320 nM
[7]
  CC50: 3620 ± 70 nM
[8]
  Average SI: 9.41
[8]; [12]
  CC50: 790 nM
[9]
  CC50: 5990 nM

## O=C1C(=Cc2ccc(Cl)c(Cl)c2)CN(C(=O)C(Cl)Cl)CC1=Cc1ccc(Cl)c(Cl)c1 [Compound 1e]
[1]
  CC50: 40 nM
  SI (Ca9-22): 19.5
[2]; [11]
  CC50: 80 ± 10 nM
  HSC-2 CC50: double-digit nanomolar
[2]
  SI (HSC-2): 9.75
[3]
  CC50: 130 ± 60 nM
  SI (HSC-3): 6.00
[4]
  CC50: 230 ± 10 nM
  SI (HSC-4): 3.39
[5]
  CC50: 1040 ± 130 nM
[6]
  CC50: 820 ± 100 nM
[7]
  CC50: 490 nM
[8]
  Average SI: 9.66
[8]; [12]
  CC50: 120 nM
[9]
  CC50: 780 nM
[10]; 0.8 µM
  subG1 population: slight increase
[10]; 0.8 µM, p < 0.05
  G2M cell population: most prominent increase
[10]; 0.1, 0.2, and 0.4 µM
  effect on the cell cycle: little effects

## O=C([O-])C(Cl)Cl.[Na+] [SDA, sodium dichloroacetate, reference compound]
[1]
  CC50: > 200000 nM
[2]; [11]
  CC50: > 200000 nM
[3]
  CC50: > 200000 nM
[4]
  CC50: > 200000 nM
[5]
  CC50: > 200000 nM
[6]
  CC50: > 200000 nM
[7]
  CC50: > 200000 nM
[8]; [12]
  Average CC50: little or no efficacy
  CC50: > 200000 nM
[9]
  CC50: > 200000 nM

## CN(C)c1ccc(C=C2CN(C(=O)C(Cl)Cl)CC(=Cc3ccc(N(C)C)cc3)C2=O)cc1 [Compound 1l]
[1]
  CC50: 13600 ± 2700 nM
  SI (Ca9-22): 10.3
[2]; [11]
  CC50: 14900 ± 4400 nM
[2]
  SI (HSC-2): 9.40
[3]
  CC50: 45500 ± 7600 nM
  SI (HSC-3): 3.08
[4]
  CC50: 19600 ± 6300 nM
  SI (HSC-4): 7.14
[5]
  CC50: 111000 ± 27000 nM
[6]
  CC50: 188000 ± 21000 nM
[7]
  CC50: 122000 ± 69000 nM
[8]
  Average SI: 7.48
[8]; [12]
  CC50: 23400 nM
[9]
  CC50: 140000 nM
  CC50 Average (non-malignant cells): very low toxicity

## O=C1C(=Cc2ccc(F)c(F)c2)CN(C(=O)C(Cl)Cl)CC1=Cc1ccc(F)c(F)c1 [Compound 1c]
[1]
  CC50: 90 ± 20 nM
  SI (Ca9-22): 20.0
[2]; [11]
  CC50: 200 ± 20 nM
[2]
  SI (HSC-2): 9.00
[3]
  CC50: 350 ± 20 nM
  SI (HSC-3): 5.14
[4]
  CC50: 200 ± 10 nM
  SI (HSC-4): 9.00
[5]
  CC50: 2210 ± 110 nM
[6]
  CC50: 1910 ± 80 nM
[7]
  CC50: 1280 ± 370 nM
[8]
  Average SI: 10.8
[8]; [12]
  CC50: 210 nM
[9]
  CC50: 1800 nM

## COc1cc(/C=C2\CN(C(=O)C(Cl)Cl)C/C(=C\c3cc(OC)c(OC)c(OC)c3)C2=O)cc(OC)c1OC [Compound 1h]
[1]
  CC50: 720 ± 150 nM
  SI (Ca9-22): 11.9
[2]; [11]
  CC50: 140 ± 10 nM
[3]
  CC50: 1370 ± 220 nM
  SI (HSC-3): 6.26
[4]
  CC50: 990 ± 390 nM
  SI (HSC-4): 8.67
[5]
  CC50: 4700 ± 1600 nM
[6]
  CC50: 17000 ± 5100 nM
[7]
  CC50: 4000 ± 600 nM
[8]
  Average SI: 22.0
[8]; [12]
  CC50: 800 nM
[9]
  CC50: 8580 nM
